Test [1] has as its system HEK293 cells (ATCC CRL-1573). As to the kind of experiment: Cellular growth inhibition assay, HEK293 cells (Example 16). The format is cell-based. To be noted: Homo sapiens, 72 hours, CellTiter-Glo 2.0. On the procedure: (§1) Exemplary compounds were tested for ability to inhibit the proliferation of HEK293 cells (ATCC CRL-1573) and HeLa cells (ATCC CCL-2).
(§2) HEK293 and HeLa cells were cultured in DMEM (Gibco 11995), supplemented with 10% Heat-inactivated FBS (Gibco A38400-01) and 1% Penicillin/Streptomycin (Gibco 15140-122) at 37° C. with 5% CO2 in a humidified tissue culture incubator. Cells were seeded at 500 cells/well in 384-well, Poly-D-lysine-treated blackplates (Perkin Elmer 6007710) in 25 μL media lacking selection for 18-24 hours. Plates were spun at 300 g for 30 seconds and stored in the incubator overnight. After 24 hours, a 25 μL aliquot of compound-containing medium was added in each well, at a final top concentration of 10 μM test compound, with 3-fold dilutions, using DMSO alone as a negative control. Plates were then spun at 300×g for 3 minutes again and cultured at 37° C. with 5% CO2. After 72 hours, cell viability was quantified with CellTiter-Glo 2.0 (Promega). After equilibrating cell plates at room temperature for 30 minutes, 25 μL CellTiter-Glo 2.0 reagent was dispensed into each well. Plates were mixed on a shaker for 2 minutes at 500 rpm, followed by a 10-minute incubation at room temperature. Luminescence readings were measured with an EnVision Plate Reader (Perkin Elmer). Data was normalized to DMSO treated cell wells. A four-parameter non-linear regression curve fit was applied to dose-response data in Prism to determine the half maximal growth inhibitory concentration (GI50) of each compound.
A general note: Cellular ATP, detected with luciferase, serves as a proxy for viable cell number.

The subject of another test is HeLa cells (ATCC CCL-2). The experiment in a line: Cellular growth inhibition assay, HeLa cells (Example 16). To be noted: Homo sapiens, 72 hours, CellTiter-Glo 2.0. In kind it is cell-based. The procedure:
as §1, §2

For the next test, the target named is T1, GSPT1 (Homo sapiens, UniProt P15170+Q96SW2).
T1 construct: host or cells: HEK293 LgBiT / GSPT1 HiBiT CRISPR knock-in
T1 sequence (P15170 whole entry): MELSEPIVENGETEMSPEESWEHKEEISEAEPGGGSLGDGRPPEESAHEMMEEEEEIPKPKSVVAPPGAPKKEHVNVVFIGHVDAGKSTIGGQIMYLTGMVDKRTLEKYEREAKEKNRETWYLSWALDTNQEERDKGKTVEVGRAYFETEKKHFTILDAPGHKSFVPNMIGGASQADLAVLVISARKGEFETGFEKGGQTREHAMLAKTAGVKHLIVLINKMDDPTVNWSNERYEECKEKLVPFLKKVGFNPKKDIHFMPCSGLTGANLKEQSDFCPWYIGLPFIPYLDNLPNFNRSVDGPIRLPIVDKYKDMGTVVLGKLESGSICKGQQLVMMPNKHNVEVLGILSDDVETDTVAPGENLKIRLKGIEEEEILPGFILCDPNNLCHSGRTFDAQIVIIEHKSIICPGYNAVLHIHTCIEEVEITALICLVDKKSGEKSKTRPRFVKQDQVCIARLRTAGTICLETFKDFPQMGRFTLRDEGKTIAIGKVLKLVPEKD
T1 sequence (Q96SW2 whole entry): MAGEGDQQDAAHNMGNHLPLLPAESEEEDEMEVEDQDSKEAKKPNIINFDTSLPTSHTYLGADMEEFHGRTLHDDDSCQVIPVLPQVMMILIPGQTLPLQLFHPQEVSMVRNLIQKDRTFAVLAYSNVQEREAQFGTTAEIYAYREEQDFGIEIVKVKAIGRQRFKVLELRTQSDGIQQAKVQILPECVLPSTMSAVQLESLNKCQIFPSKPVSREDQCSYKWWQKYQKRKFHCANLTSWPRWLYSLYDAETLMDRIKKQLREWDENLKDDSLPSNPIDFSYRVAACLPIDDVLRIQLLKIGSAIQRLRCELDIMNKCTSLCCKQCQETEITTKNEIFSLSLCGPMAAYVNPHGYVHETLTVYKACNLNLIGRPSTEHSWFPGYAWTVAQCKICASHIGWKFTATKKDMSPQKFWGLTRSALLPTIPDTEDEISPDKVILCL
T1 sequence (Q16531 whole entry partner): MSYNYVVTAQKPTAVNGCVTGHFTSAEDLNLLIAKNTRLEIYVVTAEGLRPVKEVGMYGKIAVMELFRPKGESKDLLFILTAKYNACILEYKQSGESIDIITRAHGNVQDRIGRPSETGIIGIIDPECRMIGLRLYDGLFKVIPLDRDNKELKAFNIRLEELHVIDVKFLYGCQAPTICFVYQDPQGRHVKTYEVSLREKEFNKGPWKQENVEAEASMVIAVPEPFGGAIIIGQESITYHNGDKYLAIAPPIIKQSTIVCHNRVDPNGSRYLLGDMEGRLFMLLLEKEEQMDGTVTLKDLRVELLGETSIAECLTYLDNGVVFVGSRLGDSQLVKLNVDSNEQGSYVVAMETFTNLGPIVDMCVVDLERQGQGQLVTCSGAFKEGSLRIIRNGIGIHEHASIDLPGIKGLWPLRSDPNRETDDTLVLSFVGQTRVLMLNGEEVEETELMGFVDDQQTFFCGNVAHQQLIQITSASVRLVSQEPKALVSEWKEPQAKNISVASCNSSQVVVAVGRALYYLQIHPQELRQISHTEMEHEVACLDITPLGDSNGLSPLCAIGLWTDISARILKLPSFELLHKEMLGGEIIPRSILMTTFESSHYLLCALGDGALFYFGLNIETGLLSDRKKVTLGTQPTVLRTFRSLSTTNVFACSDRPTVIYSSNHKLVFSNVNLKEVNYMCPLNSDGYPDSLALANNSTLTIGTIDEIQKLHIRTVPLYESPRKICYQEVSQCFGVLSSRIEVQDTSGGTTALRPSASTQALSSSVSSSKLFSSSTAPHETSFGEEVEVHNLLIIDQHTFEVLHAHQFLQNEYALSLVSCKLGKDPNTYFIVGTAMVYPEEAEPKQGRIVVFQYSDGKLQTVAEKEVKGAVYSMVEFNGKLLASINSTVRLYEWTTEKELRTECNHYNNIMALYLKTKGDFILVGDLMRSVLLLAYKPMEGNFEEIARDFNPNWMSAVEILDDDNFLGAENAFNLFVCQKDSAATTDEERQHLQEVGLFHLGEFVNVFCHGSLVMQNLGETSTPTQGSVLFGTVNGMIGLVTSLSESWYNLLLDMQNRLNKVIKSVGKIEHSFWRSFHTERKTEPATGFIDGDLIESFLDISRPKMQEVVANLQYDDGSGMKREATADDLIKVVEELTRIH
As to the kind of experiment: GSPT1 HiBiT degradation assay. The format is cell-based. The note with it: HEK293 LgBiT GSPT1 HiBiT cells, 6 hours. From the text:
Promega developed a HEK293 cell line that constitutively expresses LgBiT protein and GSPT1_HiBiT fusion protein. When both proteins are present, the HiBiT portion of the fusion protein combines with LgBiT protein to form a functional luciferase enzyme. Endurazine, a cell permeable small molecule, is converted by cellular esterases into furimazine, which the luciferase enzyme uses as a substrate to generate luminescence. When GSPT1 is degraded, the HiBit is also degraded. This prevents formation of fully functional luciferase, leading to a loss in luminescence. GSPT1 degradation therefore correlates with a decrease in luminescence and can be measured continuously over time. The concentration of compound at which 50% GSPT1 degradation occurs (DC50) may be calculated using this system.
HEK293 LgBiTGSPT1 HiBiT CRISPR Knock-in cells were cultured in DMEM Media supplemented with 10% Heat-inactivated FBS, 1% Penicillin/Streptomycin, 200 μg/mL hygromycin and stored in a humidified incubator set at 37° C. and 5% CO2. 18-24 hours prior to compound treatment, cells were seeded at 1000 cells/well in a 384-well tissue culture-treated white plates in 25 μL media lacking selection for 18-24 hours. The plates were spun at 300 g for 30 seconds and stored in the incubator overnight. After 24 hours, compounds are titrated in DMSO and added to media supplemented with endurazine substrate. A 25 μL aliquot of 2× compound/endurazine in media is then added to the 384-well microplate with seeded cells. (Endurazine is used at a final concentration of 0.5×). The plate was spun at 300 g for 30 seconds and stored in the incubator. After 6 hours, the plate was read on a Perkin Elmer MultiMode Plate Reader Envision 2105 to measure luminescence signal. Data were plotted in Prism (Graphpad) and the concentration of compound at which 50% GSPT1 degradation occurs (DC50) was calculated.
A general note: With HiBiT, luminescence reflects the tagged protein that the partner subunit can reach.

In another test the target is KRAS G12C (Homo sapiens, UniProt P01116, G12C). As to the kind of experiment: KRAS G12C nucleotide exchange assay (SOS1-mediated, HTRF). The format is biochemical. Details: GST-tagged KRAS G12C (amino acids 2-169). The note with it: 1 hr pre-incubation. On the procedure: KRAS target engagement (IC50 determination) was performed using a KRAS G12C nucleotide exchange assay. Specifically, compounds were tested against KRAS G12C in 10-point concentration IC50 mode with 3-fold serial dilution at a starting concentration of 10 μM. ARS1620 was used as a control.
Chain of KRAS G12C (P01116 2-169 isoform P01116-2 G12C): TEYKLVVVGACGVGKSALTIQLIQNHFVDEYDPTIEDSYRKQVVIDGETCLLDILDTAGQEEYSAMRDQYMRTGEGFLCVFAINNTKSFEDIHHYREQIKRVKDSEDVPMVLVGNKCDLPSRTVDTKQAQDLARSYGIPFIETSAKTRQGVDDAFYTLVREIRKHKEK
Briefly, GST-tagged KRAS G12C (amino acids 2-169) was mixed with anti-GST Tb antibody (1.5× solution) and 10 μL was delivered to reaction wells. Compounds were delivered using an acoustic dispenser (Echo, Labcyte) and pre-incubated with protein for 1 hr at RT. KRAS/anti-GST Tb Ab/compound mixture was incubated for 1 hour at room temperature. A 3× solution of SOS1 (amino acids 564-1049) and GTP-DY-647P1 (GTP*) was prepared in reaction buffer. A 5 μL aliquot of SOS1/GTP* solution was added to reaction wells to initiate the exchange reaction. No-SOS1 reaction or max compound concentration was used as blank. The final concentrations of KRAS G12C, SOS1, and GTP* were 30 nM, 20 nM, and 0.15 μM, respectively. SOS1 mediated exchange of GDP to GTP-DY-647P was measured using HTRF (Ex/Em=(320-75/665-7.5; 615-8.5)) using an Envision Plate Reader (Perkin Elmer). IC50 determination was performed using a Sigmoidal dose response (variable slope) equation.
In general terms: Time-resolved FRET reads energy transfer from a long-lived donor to a nearby acceptor.

Broadly, the GI50 is the concentration giving 50% growth inhibition. As usually defined, the DC50 is the concentration at which degradation of the target reaches its halfway point. `C=C(COc1c(Cl)cccc1NC(=O)NCc1ccc2c(c1)CN(C1CCC(=O)NC1=O)C2=O)C(=O)N1CCC[C@@H](n2nc(-c3ccc(Oc4ccccc4)cc3)c3c(N)ncnc32)C1` (stereo partly shown) [Compound I-115]: the values for the GI50 (in test [1]; in the test with HeLa cells (ATCC CCL-2)) were 1500 to 10000 nM and 500 to 1500 nM, respectively. For the same molecule, at GSPT1, the DC50 is less than 50 nM.

As for `C=C(CN(C(=O)NCc1ccc2c(c1)CN(C1CCC(=O)NC1=O)C2=O)c1ccc(OC)c(Cl)c1)C(=O)N1CCC[C@@H](n2nc(-c3ccc(Oc4ccccc4)cc3)c3c(N)ncnc32)C1` (stereo partly shown) [Compound I-39], the GI50 (in test [1]; in the test on HeLa cells (ATCC CCL-2)) was greater than 10000 nM in each case. Further, the DC50 on GSPT1 was greater than 2500 nM.

As to `C=C(CN1C(=O)CCC(N2Cc3cc(CNC(=O)NCc4cccc(C(F)(F)F)c4O)ccc3C2=O)C1=O)C(=O)N1CCN(c2nc(OC[C@@H]3CCCN3C)nc3c2CCN(c2cccc4cccc(Cl)c24)C3)C[C@@H]1CC#N` (stereo in doubt) [Compound I-94], the GI50 was 1500 to 10000 nM in test [1] and greater than 10000 nM in the test on HeLa cells (ATCC CCL-2).

In the case of `C=C(COc1ccc2c(Cl)c(NC(=O)NCc3ccc4c(c3)CN(C3CCC(=O)NC3=O)C4=O)ccc2c1)C(=O)N1CCN(c2nc(OC[C@@H]3CCCN3C)nc3c2CCN(c2cccc4cccc(Cl)c24)C3)C[C@@H]1CC#N` (stereo partly shown) [Compound I-92], the GI50 is less than 500 nM in test [1] and greater than 10000 nM in the test with HeLa cells (ATCC CCL-2).

`C=C(CN1C(=O)CCC(N2Cc3cc(CNC(=O)Nc4ccc(C)c(Cl)c4)ccc3C2=O)C1=O)C(=O)N1CCN(c2nc(=O)n(-c3c(C)ccnc3C(C)C)c3nc(-c4c(O)cccc4F)c(F)cc23)[C@@H](C)C1` (stereo partly drawn) [Compound I-1, 1-(3-chloro-4-methyl-phenyl)-3-[[2-[1-[2-[(3S)-4-[6-fluoro-7-(2-fluoro-6-hydroxy-phenyl)-1-(2-isopropyl-4-methyl-3-pyridyl)-2-oxo-pyrido[2,3-d]pyrimidin-4-yl]-3-methyl-piperazine-1-carbonyl]allyl]-2,6-dioxo-3-piperidyl]-1-oxo-isoindolin-5-yl]methyl]urea] returned a DC50 at GSPT1 of 500 to 2500 nM.

For `C=C(COc1c(F)cc(CN2C(=O)CCC(N3Cc4cc(CNC(=O)Nc5ccc(C)c(Cl)c5)ccc4C3=O)C2=O)cc1F)C(=O)N1CCC[C@@H](n2nc(-c3ccc(Oc4ccccc4)cc3)c3c(N)ncnc32)C1` (stereo partly shown) [Compound I-51], the GI50 (in test [1]; with HeLa cells (ATCC CCL-2)) was greater than 10000 nM in each case. Also, the DC50 at GSPT1 was greater than 2500 nM.

In the case of `C=C(CN(C(=O)NCc1ccc2c(c1)CN(C1CCC(=O)NC1=O)C2=O)c1cc(Cl)cc(OC)c1)C(=O)N1CCC[C@@H](n2nc(-c3ccc(Oc4ccccc4)cc3)c3c(N)ncnc32)C1` (stereo partly shown) [Compound I-40], the GI50 (in test [1]; in the test on HeLa cells (ATCC CCL-2)) was greater than 10000 nM each time. At GSPT1, this molecule registered a DC50 greater than 2500 nM.

For the molecule `C=C(CN(C(=O)NCc1ccc2c(c1)CN(C1CCC(=O)NC1=O)C2=O)c1ccc(C)c(Cl)c1)C(=O)N1CCN(c2nc(OC[C@@H]3CCCN3C)nc3c2CCN(c2cccc4cccc(Cl)c24)C3)C[C@@H]1CC#N` (stereo partly shown) [Compound I-34], the GI50 was less than 500 nM in test [1] and 1500 to 10000 nM in the test with HeLa cells (ATCC CCL-2). Moreover, the DC50 at GSPT1 fell in the range of 50 to 500 nM.

Turning to `C=C(COc1cccc(NC(=O)NCc2ccc3c(c2)CN(C2CCC(=O)NC2=O)C3=O)c1Cl)C(=O)N1CCN(c2nc(OC[C@@H]3CCCN3C)nc3c2CCN(c2cccc4cccc(Cl)c24)C3)C[C@@H]1CC#N` (stereo partly shown) [Compound I-91], the GI50 (in test [1]; in the test with HeLa cells (ATCC CCL-2)) was greater than 10000 nM throughout.

For `C=C(COc1ccc(CN2C(=O)CCC(N3Cc4cc(CNC(=O)Nc5ccc(C)c(Cl)c5)ccc4C3=O)C2=O)cc1)C(=O)N1CCC[C@@H](n2nc(-c3ccc(Oc4ccccc4)cc3)c3c(N)ncnc32)C1` (stereo partly shown) [Compound I-36], the GI50 (in test [1]; in the test with HeLa cells (ATCC CCL-2)) was greater than 10000 nM in each case. For the same molecule, the DC50 on GSPT1 was greater than 2500 nM.

For the molecule `C=C(CN(Cc1ccc2c(c1)CN(C1CCC(=O)NC1=O)C2=O)C(=O)Nc1ccc(C)c(Cl)c1)C(=O)N1CCN(c2nc(OC[C@@H]3CCCN3C)nc3c2CCN(c2cccc4cccc(Cl)c24)C3)C[C@@H]1CC#N` (stereo partly shown) [Compound I-33], the GI50 (in test [1]; in the test on HeLa cells (ATCC CCL-2)) was 1500 to 10000 nM each time. Besides, on GSPT1, the DC50 is greater than 2500 nM.

Consider `C=C(COC(=O)NCc1cc(Cl)cc(NC(=O)NCc2ccc3c(c2)CN(C2CCC(=O)NC2=O)C3=O)c1)C(=O)N1CCC[C@@H](n2nc(-c3ccc(Oc4ccccc4)cc3)c3c(N)ncnc32)C1` (stereo partly drawn) [Compound I-53, 2-((R)-3-(4-amino-3-(4-phenoxyphenyl)-1H-pyrazolo[3,4-d]pyrimidin-1-yl)piperidine-1-carbonyl)allyl (3-chloro-5-(3-((2-(2,6-dioxopiperidin-3-yl)-1-oxoisoindolin-5-yl)methyl)ureido)benzyl)carbamate], for which the GI50 (in test [1]; in the test on HeLa cells (ATCC CCL-2)) was 500 to 1500 nM throughout. The DC50 at GSPT1 was 50 to 500 nM.

For the molecule `C=C(COC(=O)NC1CCC(Nc2nc(NCc3ccc(-c4ccccn4)cc3)c3ncn(C(C)C)c3n2)CC1)C(=O)N1CCN(c2nc(OC[C@@H]3CCCN3C)nc3c2CCN(c2cccc4cccc(Cl)c24)C3)C[C@@H]1CC#N` (stereo partly shown) [II-192], the results for the GI50 (in test [1]; in the test with HeLa cells (ATCC CCL-2)) were 500 to 1500 nM and less than 500 nM, respectively.

In the case of `C=C(CN(C(=O)NCc1ccc2c(c1)CN(C1CCC(=O)NC1=O)C2=O)c1cc(Cl)cc([N+](=O)[O-])c1)C(=O)N1CCC[C@@H](n2nc(-c3ccc(Oc4ccccc4)cc3)c3c(N)ncnc32)C1` (stereo partly shown) [Compound I-37], on GSPT1, the DC50 was greater than 2500 nM.

Consider `C=C(COc1cc(NC(=O)NCc2ccc3c(c2)CN(C2CCC(=O)NC2=O)C3=O)cc(OC)c1Cl)C(=O)N1CCN(c2nc(OC[C@@H]3CCCN3C)nc3c2CCN(c2cccc4cccc(Cl)c24)C3)C[C@@H]1CC#N` (stereo partly shown) [Compound I-96], for which the GI50 (in test [1]; in the test on HeLa cells (ATCC CCL-2)) was greater than 10000 nM in each case.

As to `C=C(Cn1ccc2ccc(NC(=O)NCc3ccc4c(c3)CN(C3CCC(=O)NC3=O)C4=O)cc21)C(=O)N1CCN(c2nc(OC[C@@H]3CCCN3C)nc3c2CCN(c2cccc4cccc(Cl)c24)C3)C[C@@H]1CC#N` (stereo partly shown) [Compound I-93], the GI50 (in test [1]; in the test with HeLa cells (ATCC CCL-2)) was 500 to 1500 nM each time.

Broadly, the IC50 is the concentration at which inhibition is half-maximal. Read a low IC50 as higher potency. Molecule `C=C(CN1C(=O)CCC(N2Cc3cc(CNC(=O)Nc4ccc(C)c(Cl)c4)ccc3C2=O)C1=O)C(=O)N1CCN(c2nc(OC[C@@H]3CCCN3C)nc3c2CCN(c2cccc4cccc(Cl)c24)C3)C[C@@H]1CC#N` (stereo partly drawn) [Compound I-2, 1-(3-chloro-4-methyl-phenyl)-3-[[2-[1-[2-[(2S)-4-[7-(8-chloro-1-naphthyl)-2-[[(2S)-1-methylpyrrolidin-2-yl]methoxy]-6,8-dihydro-5H-pyrido[3,4-d]pyrimidin-4-yl]-2-(cyanomethyl)piperazine-1-carbonyl]allyl]-2,6-dioxo-3-piperidyl]-1-oxo-isoindolin-5-yl]methyl]urea] displayed a DC50 on GSPT1 of 50 to 500 nM. The IC50 at KRAS G12C is greater than 10000 nM.

The values above are taken from US20240408093A1, “HETEROBIFUNCTIONAL COMPOUNDS AND THEIR USE IN TREATING DISEASE” (HALDA THERAPEUTICS OPCO, INC., priority 2022, published 2024).
